Experimental data taken from ChEMBL document CHEMBL1201862, “PubChem BioAssay data set” (2004).
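Values below derive from 48-hour exposures of cells grown in 96-well plates, with endpoints linearly interpolated between the two concentrations bracketing the appropriate inhibition level. GI50 marks 50% less growth.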 Active and inactive are the calls of the source. No stated cut-off is given here; in the data, active = GI50 up to about 1.1 µM and inactive = higher.

What was measured:
Test in all cases: NCI tumour cell line growth inhibition, 48 h
SF-539 = system: SF-539
EKVX = system: EKVX
LOX IMVI = system: LOX IMVI
BT-549 = system: BT-549
HL-60 = system: HL-60
SK-MEL-5 = system: SK-MEL-5
TK-10 = system: TK-10
DU-145 = system: DU-145
CAKI-1 = system: CAKI-1
OVCAR-4 = system: OVCAR-4
MCF7 = system: MCF7
PC-3 = system: PC-3
M14 = system: M14
HCC 2998 = system: HCC 2998
SF-295 = system: SF-295
SNB-75 = system: SNB-75
UACC-62 = system: UACC-62
HCT-116 = system: HCT-116
SK-OV-3 = system: SK-OV-3

SMILES	GI50 (SF-539)	GI50 (EKVX)	GI50 (LOX IMVI)	GI50 (BT-549)	GI50 (HL-60)	GI50 (SK-MEL-5)	GI50 (TK-10)	GI50 (DU-145)	GI50 (CAKI-1)	GI50 (OVCAR-4)	GI50 (MCF7)	GI50 (PC-3)	GI50 (M14)	GI50 (HCC 2998)	GI50 (SF-295)	GI50 (SNB-75)	GI50 (UACC-62)	GI50 (HCT-116)	GI50 (SK-OV-3)
CC(=O)O[C@H]1[C@@H]2OC(=O)[C@@](O)(CC3CCCO3)[C@@H]2CC(=O)[C@](C)(O)CC/C=C(\C)CCC[C@@H]1C (stereo not given in full)	19.1 µM (inactive)	52.8 µM (inactive)	20.8 µM (inactive)	26.2 µM (inactive)	21.5 µM (inactive)	43.6 µM (inactive)	40.8 µM (inactive)	37.8 µM (inactive)	19.9 µM (inactive)	52.8 µM (inactive)	24.7 µM (inactive)	36.5 µM (inactive)	40.4 µM (inactive)	> 100 µM (inactive)	77.3 µM (inactive)	97.5 µM (inactive)	67.3 µM (inactive)		
CCN1CCC(O)(c2ccc(Oc3ccccc3)cc2)C(C(=O)c2ccc(Oc3ccccc3)cc2)C1 (stereo not given)	8.45 µM (inactive)	16 µM (inactive)	3.84 µM (inactive)	10.5 µM (inactive)	3.75 µM (inactive)	12.5 µM (inactive)	13.7 µM (inactive)	14.3 µM (inactive)	16.4 µM (inactive)	10.6 µM (inactive)	3.63 µM (inactive)	13 µM (inactive)	11.6 µM (inactive)	6.62 µM (inactive)	14.2 µM (inactive)	14.5 µM (inactive)	13.2 µM (inactive)	9.27 µM (inactive)	
Oc1c2cc(Br)cc1CCc1cc(Br)cc(c1O)CC2	28.4 µM (inactive)		16.2 µM (inactive)	22.6 µM (inactive)	15.7 µM (inactive)	13.6 µM (inactive)	31.6 µM (inactive)	16 µM (inactive)	36 µM (inactive)		22.3 µM (inactive)	14.8 µM (inactive)	16.3 µM (inactive)	15.3 µM (inactive)	18.3 µM (inactive)	21.6 µM (inactive)	18.6 µM (inactive)	15.1 µM (inactive)	20.8 µM (inactive)
COc1ccc([C@@]23Oc4cc(OC)cc(OC)c4[C@]2(O)[C@H](O)[C@H](C(=O)N(C)C)[C@H]3c2ccccc2)cc1 [ROCAGLAMIDE]		0.0203 µM (active)	0.00191 µM (active)	0.0583 µM (active)	0.00383 µM (active)	0.00301 µM (active)	0.0146 µM (active)	0.00809 µM (active)	0.0292 µM (active)	0.0206 µM (active)	0.00292 µM (active)	0.00836 µM (active)	0.00327 µM (active)	0.00289 µM (active)	0.0045 µM (active)	0.00935 µM (active)	0.00676 µM (active)	0.00316 µM (active)	0.00575 µM (active)
CC(C)(C)OC(=O)[N+](=N)C(=O)C1CCC(=O)N1C(=O)OCc1ccccc1 (stereo not given)		> 100 µM (inactive)	> 100 µM (inactive)	> 100 µM (inactive)	> 100 µM (inactive)	> 100 µM (inactive)	> 100 µM (inactive)	> 100 µM (inactive)	> 100 µM (inactive)	> 100 µM (inactive)	> 100 µM (inactive)	> 100 µM (inactive)	> 100 µM (inactive)	> 100 µM (inactive)	> 100 µM (inactive)	> 100 µM (inactive)	> 100 µM (inactive)	> 100 µM (inactive)	> 100 µM (inactive)
COCCNC1CCC(=O)c2[nH]c3ccccc3c21 (stereo not given)	> 100 µM (inactive)	27.1 µM (inactive)	94.4 µM (inactive)	> 100 µM (inactive)	> 100 µM (inactive)	> 100 µM (inactive)	> 100 µM (inactive)	> 100 µM (inactive)	> 100 µM (inactive)	> 100 µM (inactive)	> 100 µM (inactive)	> 100 µM (inactive)	> 100 µM (inactive)	> 100 µM (inactive)	> 100 µM (inactive)	> 100 µM (inactive)		> 100 µM (inactive)	
